# Literature values in US20180200206A1, “[…] METHODS AND COMPOSITIONS FOR TREATING BREAST DISORDERS” (ATOSSA GENETICS INC., priority 2015, published 2018).
# Target: estrogen receptor (Homo sapiens, UniProt P03372)
# Conditions: more potent than tamoxifen; stated as known in the art
# Sequence of estrogen receptor (P03372 whole entry): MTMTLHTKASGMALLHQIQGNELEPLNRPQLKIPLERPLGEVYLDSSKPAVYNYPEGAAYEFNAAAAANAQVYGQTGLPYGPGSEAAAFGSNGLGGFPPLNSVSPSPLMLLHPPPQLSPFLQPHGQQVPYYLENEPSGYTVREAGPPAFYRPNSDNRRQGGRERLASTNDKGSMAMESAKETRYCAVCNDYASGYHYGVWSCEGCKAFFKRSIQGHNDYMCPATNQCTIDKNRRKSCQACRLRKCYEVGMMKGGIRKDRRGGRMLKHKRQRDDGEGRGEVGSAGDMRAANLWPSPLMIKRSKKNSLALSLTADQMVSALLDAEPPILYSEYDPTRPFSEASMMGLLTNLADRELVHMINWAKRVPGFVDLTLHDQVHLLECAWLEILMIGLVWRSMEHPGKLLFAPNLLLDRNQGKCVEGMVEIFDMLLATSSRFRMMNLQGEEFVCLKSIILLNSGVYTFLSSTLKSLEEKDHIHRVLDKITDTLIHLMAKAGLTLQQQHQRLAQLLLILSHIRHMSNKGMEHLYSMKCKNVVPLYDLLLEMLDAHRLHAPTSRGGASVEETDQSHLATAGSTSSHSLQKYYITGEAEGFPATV
substance,measurement,value
4-hydroxytamoxifen,potency relative to tamoxifen,100 times
